Like-named read-outs stand apart in the source and are kept apart here.
Key:
[1] = target: human histamine H1-receptor (Homo sapiens (Human), UniProt P35367); experiment: Affinity for histamine H1-receptor: 3H-pyrilamine binding to membranes of CHO cells transfected with the human H1 receptor
Method: Affinity for histamine H1-receptor was determined by binding studies to H1 receptors. The sample used is a suspension of membranes of CHO cells transfected with the human H1 receptor (5 mg/ml, PerkinElmer), stored at −80° C. until use. After thawing, the membranes were homogenized in assay buffer (50 mM Na/K phosphate) prepared in purified water and kept at room temperature (pH 7.4). The assay was performed in 96-well microplates. In each well, 25 μl of buffer and 25 μl of vehicle (total binding) or 10 μM pyrilamine (nonspecific binding) or the products to be tested was added. Subsequently, 200 μl of the membrane suspension was added to all wells and the microtiter plate was preincubated at 25° C. for 15 min. After this time, 25 μl of 3H-pyrilamine (1.5 nM) was added and the reaction was allowed to incubate for 60 min at 25° C. Then, free radioligand was quickly separated from bound radioligand by vacuum filtration (Multiscreen microplate Screener), performing 10 washes with assay buffer (4° C.). Subsequently 45 μl of scintillation fluid was added to each well and after sealing of the microplate, the radioactivity was quantified in a liquid scintillation counter (TopCount). The graphs of the inhibition curves and calculation the IC50 value were generated with the GraphPad Prism program.
Affinity for histamine H1-receptor of four compounds from the state of the art was determined by binding studies to H1 receptors using the same protocol as described above. The graphs of the inhibition curves and calculation the IC50 value were generated also with the GraphPad Prism program.

[2] = test system: histamine papules; experiment: Antihistaminic activity: histamine papules in rats (Evans blue extraction); format: in vivo; details: 20 mg/kg oral gavage, intradermal histamine one hour after administration
Method: Antihistaminic activity: histamine papules [Mota I., Life Sci., 1963, 12, 917-927; Lefebvre P. et al., C. R. Soc. Biol., 1962, 156, 183-186; and Udaka K. et al., Proc Soc Exp Biol Med, 1970, 133, 1384-1387]
Rats, males and/or females (110-160 g) were used, kept under the usual conditions of temperature and humidity. Previous day, backs of the animals were shaved and since that time (16-24 h) animals were subjected to solid fast but supplied ad libitum with an aqueous solution of sucrose (8%) and sodium chloride (0.2%). The compounds to be tested were dissolved in tartaric acid (Probus 015420) 0.1 M at a concentration of 5 mg/ml and then diluted with water until the concentration to be tested. This suspension or solution of the compound to be tested was administered by rigid oral gavage at 10 mL/kg. The control group received by the same administration mode a solution of tartaric acid (Probus 015420) 0.1 M in water. One hour after oral administration (products, patterns or vehicle), and under light ether anesthesia, two bumps were made on the shaved back by intradermal injection of Histamine hydrochloride (Sigma H-7250) dissolved in sterile saline (10 mg/0.1 mL/papule). Immediately after, dye injection of Evans blue (Merck No. 3169) dissolved in sterile saline (25 mg/kg/4 mL) was administered intravenously. […] The concentration of extracted Evans blue was determined by microplate reader.

[3] = compounds of the invention, 3H-pyrilamine 1.5 nM, 60 min at 25° C., CHO cell membranes, read-out: IC50, affinity for human histamine H1-receptor
[4] = comparative compounds from the state of the art, same protocol, read-out: IC50, affinity for human histamine H1-receptor for comparative compounds

human histamine H1-receptor, sequence (P35367 whole entry): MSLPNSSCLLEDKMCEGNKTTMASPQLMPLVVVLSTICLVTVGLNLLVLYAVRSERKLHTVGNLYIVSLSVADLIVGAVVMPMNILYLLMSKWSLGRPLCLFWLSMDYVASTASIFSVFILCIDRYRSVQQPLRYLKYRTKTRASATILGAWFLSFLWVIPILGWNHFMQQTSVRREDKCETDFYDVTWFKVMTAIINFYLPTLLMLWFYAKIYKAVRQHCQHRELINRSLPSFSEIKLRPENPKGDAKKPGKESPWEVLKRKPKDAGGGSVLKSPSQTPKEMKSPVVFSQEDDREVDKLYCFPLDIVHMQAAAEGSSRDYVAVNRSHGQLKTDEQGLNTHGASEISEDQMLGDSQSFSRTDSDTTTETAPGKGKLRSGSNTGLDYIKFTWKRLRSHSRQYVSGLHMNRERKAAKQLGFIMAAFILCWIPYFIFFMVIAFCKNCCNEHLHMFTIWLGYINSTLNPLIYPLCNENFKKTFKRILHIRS

IC50 [1, 3]	IC50 [1, 4]	Structure (SMILES)	also measured
–	0.26 µM	O=C(O)c1ccc(OCCN2CCC(c3nc4ccccc4n3CCOc3ccccc3)CC2)cc1 [reference compound]	–
0.195 µM	–	COC(=O)COCCN1CCC(c2nc3ccccc3n2CCOc2ccccc2)CC1 [drawing 32]	–
–	1.99 µM	CCOCCn1c(C2CCN(CCOc3ccc(CC(=O)O)cc3)CC2)nc2ccccc21 [reference compound]	–
–	0.271 µM	O=C(O)Cc1ccc(OCCN2CCC(c3nc4ccccc4n3CCOc3ccccc3)CC2)cc1 [reference compound]	–
0.169 µM	–	CCOCCn1c(C2CCN(CCOCC(=O)OCC)CC2)nc2ccccc21	–

Further lines, the compound ahead of its results:

Structure (SMILES)	IC50 [1, 3]	IC50 [1, 4]	also measured
CCOCCOCCN1CCC(c2nc3ccccc3n2CCOCC)CC1	0.115 µM	–	–
CCOCCn1c(C2CCN(CCO)CC2)nc2ccccc21	0.025 µM	–	–
CCOCCn1c(C2CCN(CCOC(C)=O)CC2)nc2ccccc21	0.054 µM	–	–
OCCN1CCC(c2nc3ccccc3n2Cc2ccccn2)CC1	0.175 µM	–	–
CCOCCn1c(C2CCN(CCCO)CC2)nc2ccccc21	0.028 µM	–	–
COC(=O)COCCN1CCC(c2nc3ccccc3n2CCOc2ccccc2)CC1 [drawing 37]	–	–	% inhibition, histamine papules [2]: 45.03%
CCOCCn1c(C2CCN(CCOC)CC2)nc2ccccc21	0.093 µM	–	–
CCOCCn1c(C2CCN(CCc3ccc(C(C)(C)C)cc3)CC2)nc2ccccc21 [reference compound]	–	0.424 µM	–
